Measured values taken from paper PMC5065108 (Molecular cancer therapeutics, 2016).

Assays:
[1] = target: p210 BCR-ABL (wild type) (Homo sapiens, UniProt P00519); test: Western blot of phospho-c-ABL; format: cell-based
[2] = target: p210 BCR-ABL T315I (p210^T315I) (Homo sapiens, UniProt P00519, T315I); test: Western blot of phospho-c-ABL; format: cell-based

IC50 [1]: 2.5 µM
IC50 [2]: 17.5 µM
Structure (SMILES): Cc1cnc(Nc2ccc(N3CCN(C)CC3)cc2)nc1Nc1cccc(S(=O)(=O)NC(C)(C)C)c1 [TG101209]
